This is an account of results in patent US20170216297A1, “EFFICIENT INHIBITION OF HSP27” (TECHNISCHE UNIVERSITAET DRESDEN, priority 2014, published 2017).

Data set [1] concerns the target T1, HSP27 (Homo sapiens, UniProt P04792). The experiment in a line: Bio-layer interferometry (ForteBio Octet Red 384, biotinylated HSP27 on SSA sensors). The class given is binding. From the text: Bio-layer interferometry is a technique for detecting biomolecular interactions. It is an analytical technique that measures the optical interference of white light which is reflected by two surfaces: in each case, one surface consists of a layer of the immobilized target protein on the tip of the biosensor and one is an internal reference surface. The binding of ligands to the target protein alters the interference pattern and can be measured in real time.
For the measurements, an instrument of the ForteBio Octet Red 384 brand was used. The target protein HSP27 was biotinylated and bound to the appropriate sensors (SSA). […] The purine derivatives of general formula (I) or (II) pre-identified by means of in silico screening are employed for these measurements in a concentration range (KD) of between 333 μmol/L and 10 nmol/L.
For measurements by bio-layer interferometry, biotinylated HSP27 protein was first bound to Super-Streptavidin sensors (SSA, Fortebio). The loaded sensors were then incubated (“quenched”) with biocytin. As reference, unloaded SSA sensors were incubated with biocytin. In the case of a specific binding to HSP27 of the analyte to be measured, the loaded HSP27 sensor generates a stronger signal (response) than the concurrent reference sensor. After the “baseline” has been established by incubation with the reaction buffer (PBST 0.1% Tween 20 plus 3% DMSO), first the association and then the dissociation of the respective analyte is measured in real time. The analytes were measured in increasing concentrations in each case: 1.23-3.7-11.11-33.33-100-300 μM/l.
For orientation: In BLI a coated tip is dipped into the sample, and binding shifts an interference pattern.

The test system of a further data set is RPMI-8226 cells. Put plainly: Development of resistance to bortezomib in RPMI-8226 cells. The class given is cell-based. The method, then:
The cell line RPMI-8226 (DMSZ 402) is a “multiple myeloma” cell line and was chosen because bortezomib is employed as a standard therapy for multiple myeloma. RPMI-8226 cells respond to bortezomib, express HSP27 and develop resistance to Velcade. RPMI-8226 cells were seeded at a cell count of 100,000 cells/ml in each case and regularly passaged. […] In contrast, for RPMI 8226 cells that were treated with 30 μmol/L BVDU, a final cell count of 160,000 cells/ml was detected whereas the final cell count for the culture without the addition of an HSP27 inhibitor amounted to 350,000 cells/ml. As a control, RPMI 8226 cells were treated with the respective test substances alone, FIG. 4b.

For data set [2], the target named is T1, HSP27. The experiment in a line: Capillary electrophoresis of the CS protein precipitates (precipitated citrate synthase as measure of HSP27 inhibition). Type of data set: biochemical. The note with it: for times higher activity than BVDU for the inhibition of the HSP27 protein: 120 minutes. The method, then:
Since the heat-denatured protein aggregates of the citrate synthase from Example 1 are not water-soluble, these can be separated completely from the supernatant by means of centrifugation at room temperature at 16,000×g, 10 min. By using capillary electrophoresis, the compositions of the separated precipitates can be shown and quantified. The relative quantity of protein of precipitated citrate synthase serves as a measure of the efficacy of the test substances.
In each case, 481 nmol/L HSP27 and 1.44 μmol/L citrate synthase in 40 mmol/L HEPES buffer, pH 7.4, were employed. The relative quantity of protein of the precipitated citrate synthase in each case was normalized using a defined quantity of BSA as internal standard. The relative quantity of protein that precipitated when using 750 μmol/L BVDU was set at 1. The other test substances (2 representatives of phenothiazine derivatives of general formula (V), 2 representatives of purine derivatives of formula (I) or (II)) were each employed at a concentration of 10 μmol/L.
Since the heat-denatured protein aggregates of the citrate synthase from Example 2 are not water-soluble, these can be separated completely from the supernatant by means of centrifugation at room temperature at 16,000×g, 10 min. By using capillary electrophoresis, the compositions of the separated precipitates can be shown and quantified. The relative quantity of protein of precipitated citrate synthase serves as a measure of the efficacy of the test substances.
In each case, 481 nM HSP27 and 1.44 μmol/L citrate synthase in 40 mmol/L HEPES buffer, pH 7.4, were employed. The relative quantity of protein of the precipitated citrate synthase in each case was normalized using a defined quantity of BSA as internal standard. The relative quantity of protein that precipitated when using 750 μmol/L BVDU was set at 1. The other test substances (2 representatives of phenothiazine derivatives of general formula (V), 2 representatives of thymine derivatives of formula (I) or (II)) were employed at a concentration of 10 μmol/L in each case.
Otherwise, the experiments were performed as described above: […]

For a further data set, the system named is U937 cells. Put plainly: Development of resistance to bortezomib in U937 cells. The note with it: Examples 17/18: bortezomib 0.1-0.5 ng/ml, plus 0.75 μmol/L inhibitor. The class given is cell-based. The method, then:
For this purpose, U937 cells (histiocytic lymphoma) were cultured in DMEM culture medium (+10% FCS) at 37° C., 5% CO2 in an H2O-saturated atmosphere. 100,000 cells/ml were seeded and incubated with the cytostatic agent bortezomib (0.1 ng/ml) and the respective test substance (dosage in the current experiment: 1 μM/L acepromazine). The reference substance, BVDU, was employed at a concentration of 30 μM/L. The cells were in each case passaged before the cell count reached 1,000,000 cells/ml. At each passage, 100,000 cells/ml were again seeded and the dose of the cytostatic agent bortezomib was increased stepwise (0.1 ng/mL or 0.05 ng/mL). The concentration of the test substances remained constant. As a result of the stepwise increase in the dosage of the cytostatic agent, resistance developed in the U937 cells. The development of resistance is prevented or inhibited in the case of a positively tested HSP27 inhibitor. The experiments from Example 6 were repeated in the same way, wherein U937 cells (histiocytic lymphoma) are cultured in DMEM culture medium (+10% FCS) at 37° C., 5% CO2 in an H2O— saturated atmosphere. 100,000 cells/ml were seeded and incubated with an initial concentration of 0.2 ng/ml of the cytostatic agent bortezomib and both without an inhibitor and with acepromazine as an HSP27 inhibitor at a concentration of 1 μM/L. The reference substance, BVDU, was employed at a concentration of 30 μM/L. The cells were passaged in each case before the cell count reached 1,000,000 cells/ml. At each passage, 100,000 cells/ml were again seeded and the dose of the cytostatic agent bortezomib was increased stepwise by 0.1 ng/mL. The concentration of the test substance and the reference substance remained constant. As a result of the stepwise increase in the dosage of the cytostatic agent, resistance developed in the U937 cells. The development of resistance is prevented or inhibited in the case of a positively tested HSP27 inhibitor. The cell line U-937 is a histiocytic lymphoma (DSMZ ACC 5). This cell line also responds to treatment with bortezomib, expresses HSP27 and develops resistance to bortezomib. Bortezomib is not the standard therapy for this lymphoma, but is being discussed as a possible therapeutic agent. U-937 cells were seeded with a cell count of 100,000 cells/ml in each case and regularly passaged. […] At the end of the experiment, 70,000 living cells per ml medium could be detected. For the treatment with 30 μmol/L BVDU, a final cell count of 250,000 cells/ml was detected whereas the final cell count in the culture without the addition of an HSP27 inhibitor amounted to 450,000 cells/ml. As a control, U-937 cells were treated with the respective test substances alone, FIG. 10b.

For data set [3], the target named is T1, HSP27. The experiment in a line: Spectrophotometric protein aggregation assay (citrate synthase heat denaturation, HSP27 chaperone function). The note with it: 43° C., 500 nm. The class given is biochemical. How it is done: FIG. 1: a spectrophotometric protein aggregation assay at 43° C., a wavelength of 500 nm and a concentrations of the proteins: 1.44 μmol/L citrate synthase (CS), 481 nmol/L HSP27 (HSP) in a 40 mmol/L HEPES buffer (pH 7.4) during treatment with 14 or 28 μmol/L 2-(3-trichlorovinylphenylamino)-1,9-dihydropurin-6-one (CS+HSP+test substance no. 2), with 750 μmol/L BVDU (CS+HSP+BVDU) and without (CS+HSP; reference);
A known client protein (=substrate on which HSP27 acts as a chaperone) of HSP27 is citrate synthase. Citrate synthase is denatured when the temperature increases to 43° C. This heat denaturation is prevented or delayed by the presence of HSP27 [Jakob U, 1993]. By adding the novel active ingredients, their efficacy can thus be measured through the inhibition of the HSP27 chaperone function.
To determine the activity (i.e. the effect on the aggregation behaviour of the citrate synthase (CS) after thermal incubation) of 2-(3-trichlorovinylphenylamino)-1,9-dihydropurin-6-one in comparison to BVDU, four different batches containing 1.44 μmol/L CS, 481 nmol/L HSP27 (HSP) in a 40 mmol/L HEPES buffer (pH 7.4) were prepared and BVDU (750 μmol/L) or various concentrations of 2-(3-trichlorovinylphenylamino)-1,9-dihydropurin-6-one (14 μmol/L; 28 μmol/L) were added. The samples were then incubated at 43° C. and the aggregation behaviour of the CS was monitored in a spectrometer (PerkinElmer LS55, PerkinElmer Inc.) at a wavelength of 500 nm.
It can be seen from FIG. 1 that the protein citrate synthase (graph CS alone) is denatured by increasing the temperature to 43° C. and forms aggregates. The aggregation is measured in the spectrometer at 500 nm (light scattering by protein aggregates). The presence of HSP27 (HSP) counteracts the aggregation (cf. graph, CS+HSP). Since the addition of the test substances (BVDU and 2-(3-trichlorovinylphenylamino)-1,9-dihydropurin-6-one) inhibits the chaperone function of HSP27, the activity of the respective test substance can be determined by measuring the aggregation behaviour of the CS.

The conditions of data set [4]: cited from earlier work.
Setting [5] is: bio-layer interferometry, read-out: KD.
Where [6] appears, read: 10 μmol/L, 43° C. for 120 minutes, 750 μmol/L BVDU set at 1.
Setting [7] is: analytes 1.23-300 μM/l, PBST 0.1% Tween 20 plus 3% DMSO, read-out: Dissociation constant KD.
Where [8] appears, read: bortezomib 0.075-0.275 ng/ml, plus 1 μmol/L inhibitor.
Setting [9] is: bortezomib 0.1-0.3 ng/ml, plus 1 μM inhibitor.

Like-named read-outs stand apart in the source and are kept apart here.

T1 sequence (P04792 whole entry): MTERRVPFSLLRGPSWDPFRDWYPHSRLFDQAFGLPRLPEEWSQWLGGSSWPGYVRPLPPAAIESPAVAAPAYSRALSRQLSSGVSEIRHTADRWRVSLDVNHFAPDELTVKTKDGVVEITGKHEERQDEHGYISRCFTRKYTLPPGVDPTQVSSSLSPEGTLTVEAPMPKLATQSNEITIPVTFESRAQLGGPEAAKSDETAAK

Take `CN(C)CCCN1c2ccccc2Sc2ccc(Cl)cc21` [Chlorpromazine, reference compound]: the Kd at HSP27 [1] (setting [5]) was determined as 770 µM. The “development of resistance to bortezomib” value in the data set with RPMI-8226 cells (bortezomib 0.2-0.4 ng/ml, plus 0.5 μmol/L inhibitor) is “significantly inhibited”.

For the compound `Cc1cn(CC=CCNC(=O)Cc2ccc(-c3ccccc3)cc2)c(=O)[nH]c1=O` [2-biphenyl-4-yl-N-[4-(5-methyl-2,4-dioxo-3,4-dihydro-2H-pyrimidin-1-yl)-but-2-enyl]-acetamide], the “Rel. quantity of protein prec. CS” value at HSP27 [2] (setting [6]) came to 0.81. In addition, the “times higher activity than BVDU for the inhibition of the HSP27 protein” value on HSP27 [2] (10 μmol/L) is 61 times. Besides, the Kd on HSP27 [1] (setting [7]) worked out at 424 µM. In the data set with RPMI-8226 cells (setting [8]), the “development of resistance to bortezomib” value is “significantly inhibited”.

As for `CCCCc1ccc(Nc2nc3c(ncn3COCCO)c(=O)[nH]2)cc1` [2-(4-butylphenylamino)-9-(2-hydroxyethoxymethyl)-1,9-dihydropurin-6-one], the “development of resistance to bortezomib” value with U937 cells and in the data set with RPMI-8226 cells (setting [9]) was “significantly inhibited” in each case. The “Efficacy compared with BVDU” value at HSP27 [2] (10 μmol/L vs 750 μmol/L BVDU, 43° C. for 120 minutes) came out at 69.0 x. The “Rel. quantity of protein prec. CS” value on HSP27 [2] (setting [6]) is listed as 0.92. At HSP27 [2] (10 μmol/L), the “times higher activity than BVDU for the inhibition of the HSP27 protein” value came to 69 times. Moreover, on HSP27 [1] (setting [5]), the Kd came out at 15 µM.

Regarding `Cc1cn(CC=CCNC(=O)C2c3ccccc3Oc3ccccc32)c(=O)[nH]c1=O` [9H-xanthene-9-carboxylic acid [4-(5-methyl-2,4-dioxo-3,4-dihydro-2H-pyrimidin-1-yl)-but-2-enyl]amide], the “Rel. quantity of protein prec. CS” value at HSP27 [2] (setting [6]) worked out at 0.65. For the same compound, the “times higher activity than BVDU for the inhibition of the HSP27 protein” value at HSP27 [2] (10 μmol/L) was determined as 49 times. The Kd at HSP27 [1] (setting [7]) was 267 µM. For the same compound, in the data set on RPMI-8226 cells (setting [8]), the “development of resistance to bortezomib” value is “significantly inhibited”.

Turning to `O=c1[nH]c(Nc2cccc(C(Cl)=C(Cl)Cl)c2)nc2[nH]cnc12` [2-(3-trichlorovinylphenylamino)-1,9-dihydropurin-6-one], the “Rel. quantity of protein prec. CS” value on HSP27 [2] (setting [6]) is listed as 0.71. Also, the “times higher activity than BVDU for the inhibition of the HSP27 protein” value on HSP27 [2] (10 μmol/L) is 53 times. The “Inhibition of HSP27 chaperone function (CS aggregation), effect versus 750 μmol/L BVDU” value on HSP27 [3] (14 μmol/L) is reported as “comparable effect”; at HSP27 [3] (28 μmol/L), “significantly more pronounced effect”. Besides, in the data set on RPMI-8226 cells (setting [9]), the “development of resistance to bortezomib” value is “significantly inhibited”.

With `O=c1[nH]c(=O)n([C@H]2C[C@H](O)[C@@H](CO)O2)cc1/C=C/Br` [BVDU, (E)-5-(2-bromovinyl)-2′-deoxyuridine, reference compound], the “Rel. quantity of protein prec. CS” value on HSP27 [2] (750 μmol/L, 43° C. for 70 minutes, set at 1) is 1; at HSP27 [2] (750 μmol/L, 43° C. for 120 minutes, set at 1) it was 1. Moreover, at HSP27 [3] (750 μmol/L), the “Inhibition of HSP27 chaperone function (CS aggregation)” value was “partially cancels the chaperone function of HSP27”. Further, the tolerability in patients result in data set [4] (increased administered dose of 760 mg/day) is on record as “proved disadvantageous for low-weight patients”. The “safety and efficacy in patients” value in data set [4] (oral, administered dose of 500 mg/day) was “works safely and efficiently”.

In general, Kd refers to the free concentration of one partner at which half of the binding sites on the other are occupied at equilibrium, for simple one-to-one binding.
